# US20210283176A1, “CALCIUM BINDER FOR USE IN PREVENTING STILLBIRTH” (Nutreco IP Assets B.V, priority 2017, published 2021)
# Tested on: sows
# Conditions: phosphoric acid 0.01 mol/liter (1 g/L), 25 sows, control 1.6 (24 sows)
# Procedure: A calcium binder (phosphoric acid, PhA)) was added in a concentration of 0.01 mol/liter (corresponding to 1 g/L of phosphoric acid). The diets fed to the sows were the same.
smiles,measurement,value
"O=P(O)(O)O [PhA, phosphoric acid]","Stillborn piglets, #",1.1
